Data on 8 compounds can be found in patent publication US20100029773A1 (priority 2004, published 2010).

One series addresses α-synuclein (Homo sapiens, UniProt P37840). Briefly: DMSO-induced α-synuclein aggregation in vitro (fluorescence cross-correlation and SIFT analysis). It counts as biochemical. To be noted: 10 μM in 1% DMSO, 3-5 h.
In another series the test system is RML scrapie. To be noted: for prolongation of the median of the survival time versus vehicle (75% DMSO) group: daily intraperitoneal, days 102-115 post intracerebral RML infection, 125-500 nmol.
Series [1] deals with association between PrPC and PrPSc (recombinant mouse PrP binding to PrP-Sc aggregates from human CJD brain) (Mus musculus, UniProt P04925). The arrangement: species or system mouse rPrP; human PrP-Sc. To be noted: for classification in primary SIFT screening: primary hit = at least approx. 50% of the effect of 17 μM DOSPA on sum of bins in green sectors 1-5; for validation in SIFT dilution series (dose-dependent inhibition): six point dilution series 0.1-100 mM (so in the source).
Chain of association between PrPC and PrPSc (recombinant mouse PrP binding to PrP-Sc aggregates from human CJD brain) (P04925 23-231 limits assumed): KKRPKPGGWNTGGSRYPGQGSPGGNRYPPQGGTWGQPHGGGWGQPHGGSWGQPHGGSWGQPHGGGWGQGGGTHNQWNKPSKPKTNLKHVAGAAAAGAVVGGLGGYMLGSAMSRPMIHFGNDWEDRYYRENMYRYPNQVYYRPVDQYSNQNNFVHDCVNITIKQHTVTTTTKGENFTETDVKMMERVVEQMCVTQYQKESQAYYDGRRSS

In series [2] the test system is PrP-Sc deposits in spleen. The arrangement: species or system C57Bl6 mice. To be noted: mouse, in vivo.
Series [3] deals with PrPSc in scrapie-infected N2a (ScN2a) cells. Briefly: cells. It counts as cell-based, mouse. To be noted: for EC50: Mus musculus, ScN2a, read-out: EC50 of clearance of PrPSc from the cells; for activity against PrPSc propagation in cell culture: ScN2a cells, first screening at 15 mM (so in the source), 2 days.
Series [4] has the same test system. To be noted: cell culture; cited from earlier work.

Turning to `O=C(NN=Cc1ccc2ccccc2c1)c1ccc(O)c(O)c1` [293G02, 3,4-dihydroxy-N′-(naphthalen-2-ylmethylene)-benzohydrazide], the “inhibition of formation of multimeric α-synuclein complexes” value at α-synuclein is “inhibiting the formation of multimeric α-synuclein complexes to a large extent”. Also, the “prolongation of the median of the survival time versus vehicle (75% DMSO) group” value (from here on “prolongation of the median … (75% DMSO) group”) in the series with RML scrapie was determined as 9.5 days. In addition, in series [1], the “classification in primary SIFT screening” value is recorded as “primary SIFT hits” and the “validation in SIFT dilution series (dose-dependent inhibition)” value (from here on “validation … (dose-dependent inhibition)”) is on record as “validated in SIFT dilution series”. In series [2], the “PrP-Sc deposits in spleen tissue” value was “no signs of PrP-Sc deposition could be detected”. Besides, in series [3], the concentration giving a half-maximal response (EC50) was approximately 2 µM and the “activity against PrPSc propagation in cell culture” value is listed as “strongest cell culture activity”.
Turning to `O=C(NN=Cc1ccc2ccccc2c1)c1ccccc1O` [297F03, 2-hydroxy-N′-(naphthalen-2-ylmethylene)-benzohydrazide], in series [1], the “classification in primary SIFT screening” value is “primary SIFT hits” and the “validation … (dose-dependent inhibition)” value is listed as “validated in SIFT dilution series”.
The matching figures for `O=C(NN=Cc1ccc2ccccc2c1)c1ccc(O)cc1O` [301C09, 2,4-dihydroxy-N′-(naphthalen-2-ylmethylene)-benzohydrazide]: “primary SIFT hits” and “validated in SIFT dilution series”.
The matching figures for `O=C(NN=Cc1ccc(Cl)cc1Cl)c1ccc(O)c(O)c1` [305E04, 3,4-dihydroxy-N′-(2,4-dichlorobenzylidene)-benzohydrazide]: “primary SIFT hits” and “validated in SIFT dilution series”.
On the same counts, the results for `O=C(NN=Cc1ccc2ccccc2c1)c1cccc(Cl)c1` [306H03, 3-chloro-N′-(naphthalen-2-ylmethylene)-benzohydrazide] are “primary SIFT hits” and “validated in SIFT dilution series”.
For `COc1ccc(C=NNC(=O)c2cccc(F)c2)cc1Br` [309F02, 3-fluoro-N′-(3-bromo-4-methoxybenzylidene)-benzohydrazide], the “prolongation of the median … (75% DMSO) group” value with RML scrapie was determined as 11.5 days. In series [1], the “classification in primary SIFT screening” value is listed as “primary SIFT hits” and the “validation … (dose-dependent inhibition)” value was “validated in SIFT dilution series”.
With `COc1cc(C=NN=C(N)N)ccc1OCc1c(C)c(C)c(Br)c(C)c1C` [313B02, 1-(4-(4-bromo-2,3,5,6-tetramethylbenzyloxy)-3-methoxybenzylidene)-2-diaminomethylene-hydrazine], the “prolongation of the median … (75% DMSO) group” value with RML scrapie was “no such prolongation”. The “toxic signs during treatment” value with RML scrapie (intraperitoneal 50 μl per day of 5 mM, reduced to 2.5 mM after day 4) is on record as “toxic signs”. In addition, in series [1], the “classification in primary SIFT screening” value was “primary SIFT hits” and the “validation … (dose-dependent inhibition)” value is “validated in SIFT dilution series”. In series [3], the EC50 was approximately 6 µM.
As to `CCCCCCCC/C=C\CCCCCCCCOCC(C[N+](C)(C)CCNC(=O)C(CCCNCCCN)NCCCN)OCCCCCCCC/C=C\CCCCCCCC.Cl.Cl.Cl.Cl.[Cl-]` (centres unmarked) [DOSPA, reference compound], the “SIFT signal in sectors of aggregates predominantly labelled with green rPrP” value in series [1] (17 μM) was “reduced SIFT signal”. The “inhibition of PrPSc formation in scrapie-infected mouse cells (previous finding)” value in series [4] is “inhibit PrPSc formation”. The “activity against PrPSc propagation in cell culture” value in series [3] was “PrPSc is cleared from the infected cells”.

The EC50 is the concentration at which the effect is half-maximal.
